Key:
HLA DQ2 molecules = experiment: In vitro binding assays using EBV-transformed B cell lines; set-up: species or system human
naïve human CD4+ T-cells = experiment: T-cell proliferation assay with differentiated dendritic cells and naïve human CD4+ T-cells (tritium incorporation); format: cell-based; settings: for T-cell epitope discovered: naïve donors, positive if response at least 3 times baseline
Experimental: Fresh human peripheral blood cells were collected from “naïve” humans, i.e., persons not known to be exposed to or sensitized to Bacillus lentus protease, for determination of antigenic epitopes in protease from Bacillus lentus and human subtilisin. Naïve humans is intended to mean that the individual is not known to have been exposed to or developed a reaction to protease in the past. Peripheral mononuclear blood cells (stored at room temperature, no older than 24 hours) were prepared for use as follows: Approximately 30 mls of a solution of buffy coat preparation from one unit of whole blood was brought to 50 ml with Dulbecco's phosphate buffered solution (DPBS) and split into two tubes. The samples were underlaid with 12.5 ml of room temperature lymphoprep density separation media (Nycomed density 1.077 g/ml). The tubes were centrifuged for thirty minutes at 600 G. The interface of the two phases was collected, pooled and washed in DPBS. The cell density of the resultant solution was measured by hemocytometer. Viability was measured by trypan blue exclusion.
From the resulting solution, a differentiated dendritic cell culture was prepared from the peripheral blood mononuclear cell sample having a density of 10^8 cells per 75 ml culture flask in a solution as follows: • (1) 50 ml of serum free AIM V media (Gibco) was supplemented with a 1:100 dilution beta-mercaptoethanol (Gibco). The flasks were laid flat for two hours at 37° C. in 5% CO2 to allow adherence of monocytes to the flask wall. • (2) Differentiation of the monocyte cells to dendritic cells was as follows: nonadherent cells were removed and the resultant adherent cells (monocytes) combined with 30 ml of AIM V, 800 units/ml of GM-CSF (Endogen) and 500 units/ml of IL-4 (Endogen); the resulting mixture was cultured for 5 days under conditions at 37° C. in 5% CO2. […] Adherent and non-adherent cells were then centrifuged at 600 G for 5 minutes, washed in DPBS and counted. • (4) The prepared dendritic cells were placed into a 96 well round bottom array at 2×10^4/well in 100 microliter total volume of AIM V media.
CD4+ T cells were prepared from frozen aliquots of the peripheral blood cell samples used to prepare the dendritic cells using the human CD4+ Cellect Kit (Biotex) as per the manufacturers instructions with the following modifications: the aliquots were thawed and washed such that approximately […] will be applied per Cellect column; the cells were resuspended in 4 ml DPBS and 1 ml of the Cell reagent from the Cellect Kit, the solution maintained at room temperature for 20 minutes. […] The resultant CD4+ cell solution was centrifuged, resuspended in AIMV media and the density counted. […]

[1] = test system: T-cells of an individual known to be hypersensitive to Bacillus lentus protease; experiment: T-cell response to peptides in a sample from an individual hypersensitive to Bacillus lentus protease; format: cell-based, human
Excerpt: Peptide E05 represents the region corresponding to 170-173 in protease from Bacillus amyloliquefaciens.
Alanine substitutions were used as substitutions for the purpose of determining the role of any specific residue within the epitope. The legend of FIG. 10 refers to the position of the peptide in which an alanine was substituted, i.e., in peptide E06 (sequence GSISYPARYANAMAV (SEQ ID NO: 210)), G to A=2, S to A=3, I to A=4, S to A=5, Y to A=6, P to A=7, R to A=8, Y to A=9, N to A=10, M to A=11 and V to A=12.

70-84: BPN′ peptide of region 70-84, human T cell epitope (GTVAALNNSIGVLGV; UniProt P00782 177-191, looked up, fragment) [Peptide 70-84]
binding to HLA DQ2 molecules (HLA DQ2 molecules): bound

109-123: BPN′ peptide of region 109-123, human T cell epitope (NGIEWAIANNMDVIN; UniProt P00782 216-230, looked up, fragment) [Peptide 109-123]
binding to HLA DQ2 molecules (HLA DQ2 molecules): bound

A01: peptide derived from Humicola insolens cellulase (Carezyme); legend: A02, residues 70-84 (PGGVAYSCADQTPWA) [Peptide A01]
T-cell epitope discovered (naïve human CD4+ T-cells): T-cell epitopes were discovered

A12: peptide derived from Thermomyces lanuginosa lipase (Lipolase); legend: B02, residues 83-100 (GDVTGFLALDNTNKLIVL) [Peptide A12]
T-cell epitope discovered (naïve human CD4+ T-cells): T-cell epitopes were discovered

F06: peptide of Humicola insolens endogluconase, residues 37-51 (SEQ ID NO: 223) (CGWAKKAPVNQPVFS) [Peptide F06]
T-cell epitope discovered (naïve human CD4+ T-cells): T-cell epitopes were discovered

GSISYPARYANAMAV [Peptide E05, Bacillus lentus protease peptide with region corresponding to 170-173 of B. amyloliquefaciens protease]
immunogenic response (T-cell proliferation) to peptide (naïve human CD4+ T-cells; naïve blood samples from unsensitized individuals, response relative to baseline): marked allergenic response
T-cell response to peptide [1]: highly responsive

Source: US6897049B1, “Proteins producing an altered immunogenic response and methods of making and using the same” (Genencor International, Inc., priority 1998, dated 2005)
